Source: patent US12263139B2, “Use of cannabidiol in the treatment of tuberous sclerosis complex” (Jazz Pharmaceuticals Research UK Limited, priority 2017, dated 2025)

Tests used:
[1] = test system: AML 621-101 cells; test: Wound healing assay in AML cells; assay type: cell-based
Procedure: (§1) (i) Angiomyolipomas (AML) cells derived from a Tuberous Sclerosis Complex patient (621-101 cell-line), with a known loss of function of TSC2. […] Zeocin™ was purchased from LifeTechnologies (cat no: R25001) and was used to originally generate the stable cell line (by Prof. Lisa Henske) over two weeks of Zeocin™ selection and then for continued maintenance of the cells in tissue culture (at 100 μg/ml).
(§2) Tsc2−/− and Tsc2+/+ cell lines were cultured and maintained in DMEM supplemented with 10% (v/v) FBS and 1% (v/v) penicillin-streptomycin in a humidified incubator (5% CO2 at 37° C.). The AML −/− cell lines were cultured and maintained in DMEM supplemented with 15% (v/v) FBS and 1% (v/v) penicillin-streptomycin in a humidified incubator (5% CO2 at 37° C.). For hypoxia, cells were put into a Binder CB150 hypoxic chamber set at 1% 02 for the indicated time points
The stock concentration of CBD was made to 20 mM in dimethyl sulfoxide (DMSO). […] The final concentration of the DMSO in the cell culture medium was at a maximum level of 0.05% (v/v).
Cells were seeded in 60 mm plates and left to reach 100% confluency. Cells were then synchronised in 1% (v/v) FBS DMEM for 24 h and “wounded” with a pipette tip. Dead cells were removed with PBS wash and then subsequently replaced with DMEM (10% (v/v) FBS). […]

[2] = test system: Tsc2−/− MEFs; test: Matrigel cell invasion assay in Tsc2−/− MEFs; assay type: cell-based, mouse
Procedure: (§3) (ii) Tsc2−/− p53−/− and Tsc2+/+p53−/− mouse embryonic fibroblast (MEF) cell lines (now referred to as Tsc2−/− and Tsc2+/+, respectively).
as §2
(§4) The stock concentration of CBD was made to 20 mM in dimethyl sulfoxide (DMSO). CBD was added to culture media to final concentrations of either 5 μM or 10 μM, as indicated). The final concentration of the DMSO in the cell culture medium was at a maximum level of 0.05% (v/v).
Transwell permeable supports with 6.5 mm diameter inserts, 8.0 μm pore size, and a polycarbonate membrane were used to perform migration assays. Cells were grown in a 75-cm2 flask with standard medium (10% (v/v) FBS) until confluent. […] Cells were counted using a haemocytometer. […] The percentage of adherent cells was then determined by fixing the cells with methanol and acetone (1:1) for 20 minutes at 20° C. […] Crystal Violet stained cells were eluted with 1% (w/v) SDS and the absorbance was read at 550 nm on a Genova MK3 Lifescience. […]

[3] = test system: Tsc2−/− MEFs; test: Tumour spheroid growth (soft agar) assay in Tsc2−/− MEFs; assay type: cell-based, mouse; details: 10 μM CBD
Procedure: as §3, §4
(§5) Two-layered soft agar assays were carried out in 6-well plates. All cell lines were plated in complete DMEM media in 0.35% (v/v) agar at (3*10^5) over a 0.6% (v/v) agar layer. The agar was then overlaid with complete DMEM media and spheroids were grown for 14 days at 37° C. in 5% CO2. Media were changed twice a week and new drug was added to media. Pictures were taken using an inverted AMG EVOS microscope equipped with an Olympus camera. Volume of tumour spheroids was measured using ImageJ software.

[4] = test system: AML 621-101 cells; test: Tumour spheroid growth (soft agar) assay in AML 621-101 cells; assay type: cell-based; details: 10 μM CBD
Procedure: as §1, §4, §5

[5] = test system: HIF-1α protein; test: Western blot of hypoxia induced HIF-1α in Tsc2−/− MEFs; assay type: cell-based, mouse; details: CBD at 10 μM
Procedure: as §2
Cells were washed in Phosphate Buffered Saline (PBS) and then lysed directly in sample buffer (62.5 mM Tris HCL, 50 mM DTT, 2% SDS (w/v), 10% Glycerol (w/v), 0.1% Bromophenol blue (w/v) pH 7.6) and sonicated for 5×20 s cycles on full power (30 amplitude microns). Samples were boiled at 95° C. for 10 min. Lysates were resolved by SDS-PAGE and proteins were transferred to polyvinylidene difluoride membranes.
Membranes were blocked in 5% (w/v) dry milk powder dissolved in Tris-buffered saline containing 0.1% (v/v) Tween, then probed with primary antibody and horse radish peroxidase-conjugated secondary antibody. Proteins were visualized using Enhanced Chemiluminescent solution and Hyperfilm. Antibodies towards ribosomal protein S6 (rpS6), phospho-rpS6 (Ser235/236) were purchased from Cell Signaling Technology. Anti-HIF-1α was obtained from BD transduction laboratories. Statistical Analysis […]

[6] = test system: pS6 positive cells; test: Size of pS6 positive cells in zebrafish model of TSC; assay type: in vivo
From the text: A zebrafish model of TSC with a tsc2 gene deletion was used. This model has been previously published and validated (Kim et al. 2011). By mating the gene deletion animals with wild-type tsc2+/+ animals, heterozygote (tsc2+/−) zebrafish were also obtained and tested in this example.
For both pS6 and TUNEL staining, non-consecutive sections were imaged using a Zeiss AxioImager microscope. Exposure time was kept constant during image acquisition and determined by the observation of a slide where primary antibody or enzyme solution was omitted. Pictures were taken with a 20× objective, using the AxioVision software, and coloured using Fiji ImageJ. All counting and measuring of cells was done in the original black and white pictures.
Statistical analysis was performed in SPSS (IBM SPSS Statistics 22), except for the chi-square test, which was done using GraphPad Prism 5. Normality and sphericity were tested using the Kolmogorov-Smirnov and Mauchly's tests, respectively. Repeated measures two-way ANOVA tests were used to analyse the locomotor assay data and cell number, while a three-way ANOVA test was used to analyse cell size. Touch response (TR) between genotypes and treatments was analysed by chi-square test. Tests were followed by Tukey or Bonferroni post-hoc tests.

## C=C(C)[C@@H]1CCC(C)=C[C@H]1c1c(O)cc(CCCCC)cc1O [CBD, Cannabidiol]
[1]; 20 μM CBD
  reduction of wound closure: 60%
[1]; 5, 10 and 20 μM CBD, FIG. 1 (B)
  reduction of wound closure: effective at reducing wound closure
[2]; 5 μM CBD
  cell invasion: restoring invasion to the level of the Tsc2+/+ control cells
[2]; 10 μM CBD
  cell invasion: more robust effect
[3]
  inhibition of tumour spheroid diameter: Significance to inhibit tumour spheroid diameter was observed
[4]
  tumour spheroid formation: sufficient to block tumour spheroid formation
[5]
  hypoxia induced expression of HIF-1α protein: sufficient to block hypoxia induced expression of HIF-1α protein
[6]; main effect of treatment, compared to Danieau's or DMSO groups, FIG. 5B
  change in size of pS6 positive cells: −20.1%
[6]; tsc2+/+ zebrafish
  effect on size of pS6 positive cells: did not affect cell size
[6]; tsc2+/− zebrafish, compared to Danieau's, FIG. 5C
  change in size of pS6 positive cells: −27.6%
[6]; tsc2+/− zebrafish, compared to the DMSO group, FIG. 5C
  change in size of pS6 positive cells: −18.1%
[6]; tsc2−/− zebrafish, compared to Danieau's, FIG. 5C
  change in size of pS6 positive cells: −23%
[6]; tsc2−/− zebrafish, compared to the DMSO group, FIG. 5C
  change in size of pS6 positive cells: −20.8%
